Data on 1 compound can be found in article PMC11157767 (Molecular Cancer, 2024).

For this test, the system named is TFG-MET allograft tumors. The test is described as follows: RNA-sequencing, differential expression and GSEA of TFG-MET allograft tumors. The class given is in vivo, mouse. The conditions noted are these: RNA-sequencing of treated allograft tumors. The procedure: Error bars display standard error of mean, statistical significance was determined using t-test analysis. (****;p<0.0001, ***;p<0.001, **;p<0.01, *;p<0.05). […] Each dot represents an individual replicate. Error bars display standard error of the mean.
Each dot represents one gene.

Molecules are shown by their SMILES.

Take `C[C@@H](Oc1cc(-c2cnn(C3CCNCC3)c2)cnc1N)c1c(Cl)ccc(F)c1Cl` [Crizotinib]: the “expression of Mapk signature genes in tumors” value is recorded as “more heterogenous expression”.
